# Laboratory results reported in patent publication US10369134B2, “Nonracemic mixtures and uses thereof” (Sunovion Pharmaceuticals Inc., priority 2017, dated 2019).
# Columns and labels:
# rat = test: Forced Swim test; format: in vivo; details: 0.5 mg/kg i.p. at 24, 5 and 1 h before swim test, mean ± SE, vehicle 168±12
# Experimental: The Forced Swim test (FST) is an indicator of the antidepressant-like activity of a test compound. The rat will swim before “giving up” and becoming immobile. A compound with antidepressant-like activity will decrease the time the rat is immobile.
# The animals (n=90) were divided into five groups. […] In the training session, each animal was gently placed into the plastic cylinder containing 5.8 L of water set at 25±1° C. Fifteen minutes after the beginning of the training session, the animal was removed from the water. The dosing solutions were administered 15 minutes after finishing of the training.
# The swim test was performed for 5 minutes in the same manner as the training session. In the swim test, the behavior of each animal was horizontally recorded using a video camera. After the swim test, animals were immediately sacrificed by inhalation of carbon dioxide.
# The swim movies were handled in a blind manner to ensure that the person who measured the immobility time had no information on the treatment. An animal was judged to be immobile whenever it remained floating in the water without moving its body or forepaws except for the slight movement to maintain its posture. The total time for which the animal remained immobile was defined as the immobility time. An observer blinded to the doses measured the immobility times. The immobility time of each animal was measured to one decimal place and rounded to a whole number. Immobility time was expressed in units of seconds. In each series the means of immobility time were calculated and rounded to a whole number using. The mean and standard error (SE) for each group were calculated using the data obtained from three experimental series and rounded to a whole number. All results are represented as the mean±SE.
# The data of imipramine were analyzed using t-test with a two-sided significance level of 5% (p<0.05).
# freely moving rats = test: Sleep study of (R)-amisulpride (EEG/EMG sleep architecture); format: in vivo, rat
# Experimental: Rapid eye movement (REM) sleep time, non-rapid eye movement (NREM) sleep time, WAKE time were measured using electroencephalogram (EEG) and electromyogram (EMG) recordings. […] EEG and EMG recordings were made for 6 hr starting at the beginning of the light phase. Vehicle (0.05 N HCl/0.5% Methyl Cellulose 400 solution) or dosing suspensions were orally administered 10 min before the beginning of light phase. The volume of administration was 5 mL/kg. The order of drug treatment varied pseudo-randomly and at least 1 week was allowed between the experiments for individual animals.
# A radio transmitter (TL11M2-F40-EET; Data Science International, New Brighton, Minn., USA) was implanted subcutaneously in the back of anesthetized animals, and a pair of electrode wires was stereotaxically implanted into the skull in the following locations: one in the frontoparietal (2 mm anterior to the bregma and 2 mm left to the midline), and the other in parietal (5 mm posterior to the bregma and 2 mm right to the midline) areas. The EEG electrodes were fixed using dental cement. Electromyograms (EMG) were recorded from the dorsal neck muscle. The animals, then, were allowed at least 1 week recovery in individual plastic cages before EEG/EMG recording. EEG/EMG were recorded in the home cages in a soundproof box using Dataquest A.R.T. software (Data Science International, New Brighton, Minn., USA) at a sampling rate of 500 Hz.
# Sleep stage analysis was conducted off-line using Sleepsign software (KISSEI COMTEC CO., LTD, Nagano, Japan). Electrographic activity of 10-sec epochs were analyzed and each epoch was automatically assigned as WAKE, REM, and NREM based on the waveforms of EEG and EMG according to the following definitions: WAKE was defined as a condition in which EMG exceeded the individual threshold, NREM was defined as a condition in which the power of delta waves (0.5-4 Hz) exceeded the individual threshold with no EMG activity, and REM was defined as a condition in which the power of theta waves (4-8 Hz) exceeded 40% of the total power of frequencies between 0.5 and 80 Hz in the presence of no EMG activity. The duration of each REM, WAKE, and NREM periods were calculated by summing time spent in each condition during sleep every 2 hours.
# All data are expressed as means±S.E.M. REM sleep, NREM sleep time, and WAKE time each of sequential 2-hr periods were compared statistically using a repeated measures two-way ANOVA, followed by post-hoc Dunnett tests.
compound,measurement,setting,value
"CCN1CCC[C@@H]1CNC(=O)c1cc(S(=O)(=O)CC)c(N)cc1OC [(R)-amisulpride, R-4-Amino-N-[(1-ethyl-2-pyrrolidinyl)methyl]-5-(ethylsulfonyl)-2-methoxybenzamide]",immobility time,rat,124 ± 12 s
same,REM sleep duration,"freely moving rats; rat, 100 mg/kg p.o., 0-2 hr and 2-4 hr periods after administration",significant reductions
same,NREM sleep time,"freely moving rats; rat, 10, 30, 100 mg/kg p.o.",no observed effect
same,WAKE time,"freely moving rats; rat, 10, 30, 100 mg/kg p.o.",no observed effect
same,REM sleep duration,"freely moving rats; rat, 10, 30, 100 mg/kg p.o., light phase",reduced REM sleep duration in dose-dependent manner
